Laboratory results from the OligoGym collection.
Oligonucleotides are given in HELM: sugar(base)linkage, 5' to 3'; d 2'-deoxyribose, r ribose, m 2'-O-methylribose, p phosphate. ss, as = sense and antisense strand

Target: TMEM63B
Test: reporter assay of Huesken 2005
Settings: siRNA
Also: test concentration or dose not given here.

In order of rising normalised inhibition (eCFP-eYFP dual reporter):
1. RNA1{r(C)p.r(A)p.r(U)p.r(C)p.r(U)p.r(G)p.r(G)p.r(U)p.r(G)p.r(G)p.r(C)p.r(U)p.r(G)p.r(C)p.r(G)p.r(C)p.r(U)p.r(G)p.r(C)p.d(T)p.d(T)}|RNA2{r(G)p.r(C)p.r(A)p.r(G)p.r(C)p.r(G)p.r(C)p.r(A)p.r(G)p.r(C)p.r(C)p.r(A)p.r(C)p.r(C)p.r(A)p.r(G)p.r(A)p.r(U)p.r(G)p.d(A)p.d(A)}$$$RNA1{StrandType:ss}|RNA2{StrandType:as}$  29.3%
2. RNA1{r(U)p.r(G)p.r(A)p.r(A)p.r(U)p.r(G)p.r(A)p.r(G)p.r(A)p.r(A)p.r(G)p.r(C)p.r(C)p.r(U)p.r(C)p.r(U)p.r(U)p.r(G)p.r(G)p.d(T)p.d(T)}|RNA2{r(C)p.r(C)p.r(A)p.r(A)p.r(G)p.r(A)p.r(G)p.r(G)p.r(C)p.r(U)p.r(U)p.r(C)p.r(U)p.r(C)p.r(A)p.r(U)p.r(U)p.r(C)p.r(A)p.d(C)p.d(C)}$$$RNA1{StrandType:ss}|RNA2{StrandType:as}$  39.5%
3. RNA1{r(C)p.r(G)p.r(A)p.r(G)p.r(G)p.r(C)p.r(U)p.r(G)p.r(U)p.r(G)p.r(A)p.r(G)p.r(C)p.r(A)p.r(G)p.r(G)p.r(U)p.r(G)p.r(G)p.d(T)p.d(T)}|RNA2{r(C)p.r(C)p.r(A)p.r(C)p.r(C)p.r(U)p.r(G)p.r(C)p.r(U)p.r(C)p.r(A)p.r(C)p.r(A)p.r(G)p.r(C)p.r(C)p.r(U)p.r(C)p.r(G)p.d(C)p.d(A)}$$$RNA1{StrandType:ss}|RNA2{StrandType:as}$  42.2%
4. RNA1{r(A)p.r(U)p.r(C)p.r(C)p.r(U)p.r(C)p.r(A)p.r(U)p.r(C)p.r(C)p.r(C)p.r(A)p.r(A)p.r(G)p.r(A)p.r(U)p.r(G)p.r(A)p.r(G)p.d(T)p.d(T)}|RNA2{r(C)p.r(U)p.r(C)p.r(A)p.r(U)p.r(C)p.r(U)p.r(U)p.r(G)p.r(G)p.r(G)p.r(A)p.r(U)p.r(G)p.r(A)p.r(G)p.r(G)p.r(A)p.r(U)p.d(G)p.d(A)}$$$RNA1{StrandType:ss}|RNA2{StrandType:as}$  53.8%
5. RNA1{r(U)p.r(G)p.r(C)p.r(U)p.r(G)p.r(C)p.r(C)p.r(U)p.r(G)p.r(U)p.r(C)p.r(A)p.r(A)p.r(C)p.r(U)p.r(U)p.r(C)p.r(U)p.r(C)p.d(T)p.d(T)}|RNA2{r(G)p.r(A)p.r(G)p.r(A)p.r(A)p.r(G)p.r(U)p.r(U)p.r(G)p.r(A)p.r(C)p.r(A)p.r(G)p.r(G)p.r(C)p.r(A)p.r(G)p.r(C)p.r(A)p.d(C)p.d(G)}$$$RNA1{StrandType:ss}|RNA2{StrandType:as}$  60.5%
6. RNA1{r(U)p.r(U)p.r(A)p.r(U)p.r(C)p.r(G)p.r(G)p.r(C)p.r(A)p.r(A)p.r(C)p.r(G)p.r(C)p.r(C)p.r(A)p.r(U)p.r(G)p.r(G)p.r(A)p.d(T)p.d(T)}|RNA2{r(U)p.r(C)p.r(C)p.r(A)p.r(U)p.r(G)p.r(G)p.r(C)p.r(G)p.r(U)p.r(U)p.r(G)p.r(C)p.r(C)p.r(G)p.r(A)p.r(U)p.r(A)p.r(A)p.d(A)p.d(G)}$$$RNA1{StrandType:ss}|RNA2{StrandType:as}$  62.7%
7. RNA1{r(U)p.r(G)p.r(U)p.r(G)p.r(U)p.r(A)p.r(A)p.r(A)p.r(U)p.r(G)p.r(C)p.r(C)p.r(A)p.r(G)p.r(G)p.r(G)p.r(C)p.r(U)p.r(G)p.d(T)p.d(T)}|RNA2{r(C)p.r(A)p.r(G)p.r(C)p.r(C)p.r(C)p.r(U)p.r(G)p.r(G)p.r(C)p.r(A)p.r(U)p.r(U)p.r(U)p.r(A)p.r(C)p.r(A)p.r(C)p.r(A)p.d(C)p.d(G)}$$$RNA1{StrandType:ss}|RNA2{StrandType:as}$  66.8%
8. RNA1{r(U)p.r(C)p.r(U)p.r(G)p.r(G)p.r(G)p.r(G)p.r(A)p.r(G)p.r(A)p.r(A)p.r(C)p.r(A)p.r(G)p.r(G)p.r(A)p.r(C)p.r(A)p.r(A)p.d(T)p.d(T)}|RNA2{r(U)p.r(U)p.r(G)p.r(U)p.r(C)p.r(C)p.r(U)p.r(G)p.r(U)p.r(U)p.r(C)p.r(U)p.r(C)p.r(C)p.r(C)p.r(C)p.r(A)p.r(G)p.r(A)p.d(G)p.d(C)}$$$RNA1{StrandType:ss}|RNA2{StrandType:as}$  68%
9. RNA1{r(G)p.r(U)p.r(G)p.r(A)p.r(A)p.r(U)p.r(G)p.r(A)p.r(G)p.r(A)p.r(A)p.r(G)p.r(C)p.r(C)p.r(U)p.r(C)p.r(U)p.r(U)p.r(G)p.d(T)p.d(T)}|RNA2{r(C)p.r(A)p.r(A)p.r(G)p.r(A)p.r(G)p.r(G)p.r(C)p.r(U)p.r(U)p.r(C)p.r(U)p.r(C)p.r(A)p.r(U)p.r(U)p.r(C)p.r(A)p.r(C)p.d(C)p.d(T)}$$$RNA1{StrandType:ss}|RNA2{StrandType:as}$  69.3%
10. RNA1{r(A)p.r(G)p.r(C)p.r(C)p.r(U)p.r(A)p.r(C)p.r(C)p.r(C)p.r(C)p.r(A)p.r(A)p.r(C)p.r(U)p.r(G)p.r(C)p.r(A)p.r(C)p.r(A)p.d(T)p.d(T)}|RNA2{r(U)p.r(G)p.r(U)p.r(G)p.r(C)p.r(A)p.r(G)p.r(U)p.r(U)p.r(G)p.r(G)p.r(G)p.r(G)p.r(U)p.r(A)p.r(G)p.r(G)p.r(C)p.r(U)p.d(T)p.d(C)}$$$RNA1{StrandType:ss}|RNA2{StrandType:as}$  70.7%
11. RNA1{r(G)p.r(C)p.r(A)p.r(A)p.r(C)p.r(G)p.r(U)p.r(G)p.r(A)p.r(A)p.r(G)p.r(C)p.r(G)p.r(G)p.r(C)p.r(A)p.r(U)p.r(C)p.r(A)p.d(T)p.d(T)}|RNA2{r(U)p.r(G)p.r(A)p.r(U)p.r(G)p.r(C)p.r(C)p.r(G)p.r(C)p.r(U)p.r(U)p.r(C)p.r(A)p.r(C)p.r(G)p.r(U)p.r(U)p.r(G)p.r(C)p.d(G)p.d(C)}$$$RNA1{StrandType:ss}|RNA2{StrandType:as}$  72.4%
12. RNA1{r(C)p.r(C)p.r(U)p.r(G)p.r(C)p.r(U)p.r(C)p.r(A)p.r(U)p.r(G)p.r(U)p.r(A)p.r(C)p.r(A)p.r(U)p.r(G)p.r(A)p.r(U)p.r(C)p.d(T)p.d(T)}|RNA2{r(G)p.r(A)p.r(U)p.r(C)p.r(A)p.r(U)p.r(G)p.r(U)p.r(A)p.r(C)p.r(A)p.r(U)p.r(G)p.r(A)p.r(G)p.r(C)p.r(A)p.r(G)p.r(G)p.d(C)p.d(C)}$$$RNA1{StrandType:ss}|RNA2{StrandType:as}$  73.1%
13. RNA1{r(C)p.r(C)p.r(U)p.r(U)p.r(U)p.r(G)p.r(U)p.r(C)p.r(A)p.r(C)p.r(C)p.r(U)p.r(U)p.r(C)p.r(C)p.r(A)p.r(C)p.r(A)p.r(A)p.d(T)p.d(T)}|RNA2{r(U)p.r(U)p.r(G)p.r(U)p.r(G)p.r(G)p.r(A)p.r(A)p.r(G)p.r(G)p.r(U)p.r(G)p.r(A)p.r(C)p.r(A)p.r(A)p.r(A)p.r(G)p.r(G)p.d(C)p.d(C)}$$$RNA1{StrandType:ss}|RNA2{StrandType:as}$  74.2%
14. RNA1{r(C)p.r(A)p.r(G)p.r(C)p.r(C)p.r(A)p.r(U)p.r(C)p.r(A)p.r(U)p.r(C)p.r(A)p.r(U)p.r(C)p.r(A)p.r(C)p.r(C)p.r(A)p.r(C)p.d(T)p.d(T)}|RNA2{r(G)p.r(U)p.r(G)p.r(G)p.r(U)p.r(G)p.r(A)p.r(U)p.r(G)p.r(A)p.r(U)p.r(G)p.r(A)p.r(U)p.r(G)p.r(G)p.r(C)p.r(U)p.r(G)p.d(G)p.d(A)}$$$RNA1{StrandType:ss}|RNA2{StrandType:as}$  74.3%
15. RNA1{r(C)p.r(G)p.r(C)p.r(A)p.r(U)p.r(C)p.r(C)p.r(C)p.r(A)p.r(G)p.r(G)p.r(C)p.r(C)p.r(U)p.r(G)p.r(C)p.r(U)p.r(C)p.r(A)p.d(T)p.d(T)}|RNA2{r(U)p.r(G)p.r(A)p.r(G)p.r(C)p.r(A)p.r(G)p.r(G)p.r(C)p.r(C)p.r(U)p.r(G)p.r(G)p.r(G)p.r(A)p.r(U)p.r(G)p.r(C)p.r(G)p.d(C)p.d(A)}$$$RNA1{StrandType:ss}|RNA2{StrandType:as}$  74.9%
16. RNA1{r(C)p.r(U)p.r(G)p.r(C)p.r(U)p.r(G)p.r(A)p.r(A)p.r(G)p.r(C)p.r(A)p.r(C)p.r(C)p.r(U)p.r(G)p.r(G)p.r(U)p.r(A)p.r(G)p.d(T)p.d(T)}|RNA2{r(C)p.r(U)p.r(A)p.r(C)p.r(C)p.r(A)p.r(G)p.r(G)p.r(U)p.r(G)p.r(C)p.r(U)p.r(U)p.r(C)p.r(A)p.r(G)p.r(C)p.r(A)p.r(G)p.d(C)p.d(A)}$$$RNA1{StrandType:ss}|RNA2{StrandType:as}$  75%
17. RNA1{r(C)p.r(C)p.r(C)p.r(G)p.r(U)p.r(G)p.r(U)p.r(U)p.r(A)p.r(C)p.r(A)p.r(A)p.r(C)p.r(G)p.r(U)p.r(G)p.r(G)p.r(C)p.r(U)p.d(T)p.d(T)}|RNA2{r(A)p.r(G)p.r(C)p.r(C)p.r(A)p.r(C)p.r(G)p.r(U)p.r(U)p.r(G)p.r(U)p.r(A)p.r(A)p.r(C)p.r(A)p.r(C)p.r(G)p.r(G)p.r(G)p.d(C)p.d(G)}$$$RNA1{StrandType:ss}|RNA2{StrandType:as}$  75.8%
18. RNA1{r(U)p.r(C)p.r(G)p.r(C)p.r(C)p.r(U)p.r(A)p.r(A)p.r(U)p.r(G)p.r(U)p.r(U)p.r(C)p.r(C)p.r(U)p.r(C)p.r(G)p.r(A)p.r(U)p.d(T)p.d(T)}|RNA2{r(A)p.r(U)p.r(C)p.r(G)p.r(A)p.r(G)p.r(G)p.r(A)p.r(A)p.r(C)p.r(A)p.r(U)p.r(U)p.r(A)p.r(G)p.r(G)p.r(C)p.r(G)p.r(A)p.d(G)p.d(C)}$$$RNA1{StrandType:ss}|RNA2{StrandType:as}$  77.9%
19. RNA1{r(U)p.r(C)p.r(A)p.r(U)p.r(C)p.r(A)p.r(U)p.r(C)p.r(A)p.r(C)p.r(C)p.r(A)p.r(C)p.r(C)p.r(A)p.r(U)p.r(G)p.r(G)p.r(A)p.d(T)p.d(T)}|RNA2{r(U)p.r(C)p.r(C)p.r(A)p.r(U)p.r(G)p.r(G)p.r(U)p.r(G)p.r(G)p.r(U)p.r(G)p.r(A)p.r(U)p.r(G)p.r(A)p.r(U)p.r(G)p.r(A)p.d(T)p.d(G)}$$$RNA1{StrandType:ss}|RNA2{StrandType:as}$  79.2%
20. RNA1{r(A)p.r(G)p.r(U)p.r(G)p.r(C)p.r(C)p.r(C)p.r(A)p.r(C)p.r(A)p.r(A)p.r(C)p.r(U)p.r(A)p.r(C)p.r(A)p.r(A)p.r(G)p.r(A)p.d(T)p.d(T)}|RNA2{r(U)p.r(C)p.r(U)p.r(U)p.r(G)p.r(U)p.r(A)p.r(G)p.r(U)p.r(U)p.r(G)p.r(U)p.r(G)p.r(G)p.r(G)p.r(C)p.r(A)p.r(C)p.r(U)p.d(G)p.d(A)}$$$RNA1{StrandType:ss}|RNA2{StrandType:as}$  81.7%
